From patent publication US12485095B2, “Plurality of tasquinimod particles and use thereof” (ACTIVE BIOTECH AB, priority 2021, dated 2025)
≈ marks a conversion by molar mass, not a printed value.

How the values were obtained:
[1] = gastrointestinal permeability using the Caco-2 cell model; type: in vitro ADME; details: human, read-out: permeability coefficient
Protocol: (§1) Tasquinimod is a compound having high gastrointestinal permeability and high aqueous solubility. […] For a drug compound to be classified as “highly soluble” according to the BCS, the highest single therapeutic dose thereof should be completely soluble in 250 ml or less of aqueous media over the pH range of 1.2-6.8 at 37±1° C. […] Based on these properties, tasquinimod is classified as a BCS Class I compound. […] In view of the high water-solubility of tasquinimod, the low dissolution rate of tasquinimod particles in aqueous phase was completely unexpected. A low dissolution rate is susceptible of reducing the bioavailability and may pose an obstacle to an efficient oral administration of an otherwise therapeutically active compound.

Caco-2 cell model = test: as above; type: in vitro ADME
Protocol: as §1

[2] = aqueous solubility of tasquinimod; type: physicochemical
Protocol: as §1

pKa of tasquinimod = type: physicochemical; details: weak acid
[3] = Biopharmaceutics Classification System (BCS) classification; type: physicochemical; details: based on permeability and solubility
Protocol: as §1

COc1cccc2c1c(O)c(C(=O)N(C)c1ccc(C(F)(F)F)cc1)c(=O)n2C [tasquinimod, 4-hydroxy-5-methoxy-N, 1-dimethyl-2-oxo-N-[4-(trifluoromethyl)phenyl]-1,2-dihydroquinoline-3-carboxamide]
Papp [1]: 43.5 ± 0.9 ×10⁻⁶ cm/s
permeability ranking according to the Biopharmaceutics Classification System (BCS) (Caco-2 cell model): highly permeable
solubility relative to BCS "highly soluble" cut-off value ([2]; aqueous media over the pH range of 1.2-6.8 at 37±1° C.): ten-fold
solubility ([2]; aqueous medium, pH 7.4, aqueous buffer): 250 µg/mL (≈ 615 µM)
solubility relative to BCS "highly soluble" cut-off value ([2]; physiological pH at 7.4): 50 fold
pKa (pKa of tasquinimod): 6.5
BCS class [3]: BCS Class I
